# From US5824320A, “Cosmetic or pharmaceutical compositions containing, as active ingredient, mangiferine or its derivatives, in pure form or in plant extracts” (Laboratories de Biologie Vegetale Yves Rocher, priority 1994, dated 1998)
# pIC50: −log10 of the molar value.
# What was measured:
# [1] = UV light absorption spectrum; type: physicochemical
# [2] = Phototoxicity check
# [3] = Anti-free radical activity (NADH/PMS superoxide, NBT reduction); type: biochemical; details: 1% solution in propylene glycol vs 0.1% rutin
# Description: Anti-Free Radical Activity (determined according to V. Ponti, M. U. Dianzani, K. Cheeseman and T. F. Slater, Cehm--Biol interaction, 23 (1978) 281-291).
# Superoxide anions are generated by the reaction of NADH (Nicotinamide Adenine Dinucleotide in a reduced form) with PMS (Phenazine Methosulphate). The superoxide anions reduce NBT (Nitro Blue Tetrazolium) to diformazan which is violet-blue in colour.
# The appearance of reduced NBT is monitored over time using a spectrophotometer. The results are represented in FIG. 3a.
# The anti-free radical activity of the extracts is expressed as rutin equivalent for a 50% inhibition.
# Anti-Free Radical Activity Determined in vitro (V. Ponti, M. U. Dianzani, K. Cheeseman and T. F. Slater, Chem. Biol. interaction, 23, 281-291, 1978).
# The anti-free radical activity of the extracts is expressed in rutin equivalent for a 50% inhibition.
# [4] = target: Clostridium histolycum collagenase (Hathewaya histolytica, UniProt Q46085); test: biochemical
# [5] = Solubility; type: physicochemical
# [6] = target: pancreatic elastase (Sus scrofa, UniProt P00772); test: Anti-elastase activity (MeO Suc-Ala-Ala-Pro-Val-pNa substrate)
# [7] = Photostability under continuous xenon lamp radiation (half-life time of absorption); details: aqueous solution, compared with benzophenone 4 under the same conditions
# [8] = test system: hyaluronidase; test: Anti-hyaluronidase activity (N-acetylglucosamine liberated from hyaluronic acid); type: biochemical; details: Mangifera extract 1% dry extract; heparin Sigma 10 USP/ml
# Experimental: Anti-Hyaluronidase Activity (determined according to Jose L. Reissig, Jack L. Stominger and Luis F. Leloior, 05.12.1955).
# The N-acetylglucosamine liberated after 45 minutes during the reaction of the hyaluronidase with hyaluronic acid is measured using a spectrophotometer. A process for reducing the anhydrous sugars, which in acid medium are converted to furan derivatives, is used; the said sugars react with para-dimethylaminobenzaldehyde to form a coloured complex.
# The activity is expressed in μg of N-acetylglucosamine formed per minute.
# The anti-hyaluronidase activity is expressed as a quantity of extract for obtaining 50% inhibition.
# Anti-Hyaluronidase Activity Determined in vitro (Jose L. Reissig, Jack L. Strominger and Luis F. Leloir, J. Biol.--Chem. 217, 960-966, 1953).
# The anti-hyaluronidase activity is expressed as quantity of extract for obtaining 50% inhibition. The results are plotted in Figure 5b.
# Chain of Clostridium histolycum collagenase (Q46085 41-1021 limits assumed): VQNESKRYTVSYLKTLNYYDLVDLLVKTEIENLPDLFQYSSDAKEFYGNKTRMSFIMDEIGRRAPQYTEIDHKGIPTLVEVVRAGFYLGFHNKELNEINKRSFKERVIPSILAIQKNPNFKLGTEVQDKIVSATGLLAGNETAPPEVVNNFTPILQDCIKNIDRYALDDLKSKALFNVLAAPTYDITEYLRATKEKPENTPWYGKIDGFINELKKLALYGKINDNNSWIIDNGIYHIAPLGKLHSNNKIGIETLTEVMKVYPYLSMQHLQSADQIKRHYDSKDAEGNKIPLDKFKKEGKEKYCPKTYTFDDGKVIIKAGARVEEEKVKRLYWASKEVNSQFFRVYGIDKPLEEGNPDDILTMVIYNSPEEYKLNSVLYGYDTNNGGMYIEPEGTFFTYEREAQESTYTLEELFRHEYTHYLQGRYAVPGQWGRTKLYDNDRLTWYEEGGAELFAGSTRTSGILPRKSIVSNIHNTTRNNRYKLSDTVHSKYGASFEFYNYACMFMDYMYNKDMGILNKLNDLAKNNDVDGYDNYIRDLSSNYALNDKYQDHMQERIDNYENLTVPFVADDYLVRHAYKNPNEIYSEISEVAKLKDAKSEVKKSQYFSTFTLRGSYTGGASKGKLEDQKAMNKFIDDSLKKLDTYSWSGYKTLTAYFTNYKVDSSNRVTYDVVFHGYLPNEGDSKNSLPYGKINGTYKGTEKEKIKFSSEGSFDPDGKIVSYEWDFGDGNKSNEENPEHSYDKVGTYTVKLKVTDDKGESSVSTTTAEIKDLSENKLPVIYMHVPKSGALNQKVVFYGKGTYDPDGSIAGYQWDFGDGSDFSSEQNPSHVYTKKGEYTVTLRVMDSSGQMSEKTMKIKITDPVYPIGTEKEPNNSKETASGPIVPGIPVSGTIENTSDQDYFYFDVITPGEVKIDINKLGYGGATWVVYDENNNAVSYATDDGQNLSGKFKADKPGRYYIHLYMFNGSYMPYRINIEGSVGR
# Chain of pancreatic elastase (P00772 27-266): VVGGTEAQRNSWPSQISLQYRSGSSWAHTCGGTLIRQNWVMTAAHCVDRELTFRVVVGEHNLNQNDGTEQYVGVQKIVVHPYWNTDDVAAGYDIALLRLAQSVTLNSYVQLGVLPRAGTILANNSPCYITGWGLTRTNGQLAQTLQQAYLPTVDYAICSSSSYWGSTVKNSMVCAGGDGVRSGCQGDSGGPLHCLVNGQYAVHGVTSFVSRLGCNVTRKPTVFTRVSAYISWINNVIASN
Compound,UV absorption maximum corresponding to the zone of UVA rays ([1]; UVA zone),UV absorption maximum corresponding to UVB rays ([1]; UVB zone),phototoxicity [2],anti-free radical activity relative to rutin reference solution [3],pIC50 [4],solubility in alkaline liquids ([5]; alkaline liquids),solubility in cold water ([5]; cold water),pIC50 [6],"photostability (resistance to irradiation, half-life time) [7]",half-inhibition volume IV50 (anti-hyaluronidase) [8]
"O=c1c2cc(O)c(O)cc2oc2cc(O)c([C@@H]3O[C@H](CO)[C@@H](O)[C@H](O)[C@H]3O)c(O)c12 [mangiferine, C-glucoside of 1,3,6,7-tetrahydroxy xanthone]",around 360 nm,around 320 nm,absence of phototoxicity,4 times,~3.93,soluble,very sparingly soluble,~4.63,"equally resistant to irradiation, with a very similar half-life time",–
heparin,–,–,–,–,–,–,–,–,–,380 µL
